Test results from patent US10851386B2, “Plants transformed to express a phosphite dehydrogenase enzyme capable of metabolizing phosphite to reduce competition from weeds” (Centro de Investigación y de Estudios Avanzados del …, priority 2008, dated 2020).

Experiments:
[1] = system: transgenic tobacco homozygous for the 35S::PtxD gene; assay: Tobacco seedling growth in MS media with phosphate or phosphite as only phosphorus source; type: in vivo, Nicotiana tabacum; conditions: for seedling growth: MS media, 25 days after germination, FIG. 13
Experimental: (§1) Nicotiana tabacum was transformed with the expression construct described in Example 1. In particular, tobacco leaf explants were co-cultivated with an Agrobacterium strain harboring a 35S::PtxD construct (Example 1) within its T-DNA. Leaf discs were allowed to regenerate in MS media containing 1 mM phosphite as the only phosphorus source. Plants regenerated from these leaf discs on phosphite-containing media were transferred to soil and allowed to set seed under greenhouse conditions.
(§2) The presence or absence of growth (after depletion of seed-furnished phosphorus) is indicated by a plus (+) or a minus (−) symbol, respectively.
(§3) Seedlings were germinated and maintained in MS media supplemented with 1 mM phosphite as the only phosphorus source for 25 days. The seedlings then were transferred to tissue culture flasks containing MS with 1 mM phosphite as the only phosphorus source and were allowed to grow for 25 additional days in a plant growth chamber at 23° C., with a photoperiod of 18 h light, followed by 6 h darkness for each 24-hour period.

[2] = system: transgenic PTXD-3 and PTXD-5 lines; assay: Growth on liquid growth medium with phosphite or phosphate as phosphorus source; type: in vivo, Arabidopsis thaliana
Experimental: Two transgenic Arabidopsis lines, dubbed PTXD-3 and PTXD-5, were prepared and isolated as described in Example 1. Each line is homozygous for the ptxD expression construct of Example 1.
(§4) The parental line and the PTXD-3 and PTXD-5 transgenic lines were tested for the ability to grow on a liquid medium, with or without inorganic phosphate (Pi) as the source of phosphorus. Seeds from the parental and transgenic lines were germinated in liquid media and tested for growth.
(§5) In FIG. 7, the absence or presence of sustained plant growth (beyond the germination stage) is identified with a minus (−) or a plus (+) symbol, respectively. […] Therefore, the transgenic lines acquired the ability to metabolize phosphite as a phosphorus source to support plant growth.

parental (WT) line Col-0 = assay: as above; type: in vivo, Arabidopsis thaliana
Experimental: as §4, §5

[3] = system: Control plants (wild-type Col-0); assay: Growth in media containing only phosphite as external source of phosphorus; type: in vivo, Arabidopsis thaliana; conditions: only phosphite (about 0.1 to 5 mM) as external source of phosphorus
Experimental: (§6) The transformed Agrobacterium clone was used to transform Arabidopsis thaliana (ecotype Col-0) (generally described herein as “wild-type” (WT)) using a modified floral dip method. Transformed T0 progeny were selected using phosphinothricin resistance. In particular, screening was performed with MS 0.1× media containing phosphinothricin (20 mg/L). Twenty-eight resistant lines were identified through PCR amplification of the ptxD gene.
(§7) The ptxD transgenic plants were tested for their ability to grow in media containing only phosphite (e.g., about 0.1 to 5 mM) as an external source of phosphorus.

[4] = system: ptxD transgenic (PTXD) plants; assay: Growth and dry weight on sand:vermiculite substrate with phosphate or phosphite; type: in vivo, Arabidopsis thaliana; conditions: sand:vermiculite (1:1)
Experimental: (§8) FIGS. 10 and 11 show photographs of parental and ptxD transgenic plants distributed according to FIG. 9 and tested for growth on a substrate containing added phosphate (Pi) (FIG. 10) or phosphite (Phi) (FIG. 11) as the source of phosphorus. […] The plants here and in FIG. 11 were grown in a sand:vermiculite mixture (1:1) and received water and nutrient solutions (lacking any other phosphorus source except as previously indicated) periodically.
(§9) The dry weight of three plants cultivated in sand:vermiculite (1:1) as substrate is plotted in the figure with respect to each particular plant line and source(s) of phosphorus.

parental (WT) plants = assay: as above; type: in vivo, Arabidopsis thaliana; conditions: sand:vermiculite (1:1)
Experimental: as §8, §9

[5] = system: transgenic plants (PTXD-3 and PTXD-5); assay: Reduction of total phosphorus in growth medium containing phosphite (vanadium-molybdate method); type: in vivo, Arabidopsis thaliana; conditions: initially 50, 100 or 1000 μM phosphite; 45 days; 100 plants per container; FIG. 8
Description: Wild type and the two transgenic Arabidopsis lines, PTXD-3 and PTXD-5, were germinated and cultivated in one-liter plastic containers with 0.1× Murashige and Skoog liquid medium lacking phosphate and supplemented with either 50, 100 or 1000 micromolar phosphorous acid (H3PO3). One hundred plants per plastic container were allowed to grow for 45 days in the plastic container in a growth chamber with a 16:8 light:dark cycle for each 24-hour period. The plants were covered to avoid moisture loss. A double layer of plastic mesh was placed where seeds were sown to germinate on top of liquid media in each plastic container.
After 45 days of growth the total phosphorus content was determined in the liquid media, after removing the plants, using a vanadium-molybdate method. Briefly, 5 mL of liquid media from each sample was digested with nitric acid:perchloric acid (HNO3:HClO4; 5:1). Then, the phosphorus content was determined with a colorimetric method based on the addition of a solution of ammonium molybdate (20 mM) and ammonium metavanadate (10 mM) in 70% perchloric acid. After a 20-minute incubation at room temperature, the absorbance at 400 nm was measured with a spectrophotometer.
In FIG. 8, the first three bars labeled as “initial” represent the initial concentration of total phosphorus in the media without plants. […]

[6] = system: control tobacco seedlings; assay: Tobacco seedling growth in MS media with phosphate or phosphite as only phosphorus source; type: in vivo, Nicotiana tabacum
Experimental: as §1, §2, §3

ptxD transgenic plants = assay: Growth or selection in media containing only phosphite as external source of phosphorus; type: in vivo, Arabidopsis thaliana
Experimental: as §6, §7
The ptxD expression construct also was used to provide a selectable marker for selection of transgenic plants with modified phosphorus metabolism. Wild-type Col-0 plants were transformed using Agrobacterium containing the ptxD expression construct. T0 progeny (seeds) were plated on a medium with phosphite (5 mM) as the source of phosphorus.

[7] = 50 μM inorganic phosphate, FIG. 7
[8] = MS with 1 mM phosphite as only phosphorus source, 25 days plus 25 additional days, FIG. 14
[9] = 50, 100, and 1000 μM inorganic phosphite as phosphorus source, FIG. 7

SMILES | seedling growth ([1]; 1 mM Pi as only phosphorus source) | growth [2, 7] | growth ([2]; 50, 100, and 1000 μM phosphate) | growth (parental (WT) line Col-0; [7]) | growth (parental (WT) line Col-0; 50, 100, and 1000 μM phosphate) | growth [3] | growth (dry weight of three plants) on phosphite relative to phosphate ([4]; FIG. 12) | sustained growth on substrate ([4]; added phosphite (Phi), FIG. 11) | sustained growth on substrate (parental (WT) plants; added phosphite (Phi), FIG. 11) | growth (dry weight of three plants) (parental (WT) plants; phosphite as the source of phosphorus, FIG. 12) | decrease of phosphorus content in the media (removal of phosphite) [5] | seedling growth ([1]; 1 mM Phi as only phosphorus source) | growth [1, 8] | seedling growth ([6]; MS media, 1 mM Phi as only phosphorus source, 25 days after germination, FIG. 13) | growth and development [6, 8] | growth [2, 9] | growth (parental (WT) line Col-0; [9]) | growth of T0 progeny relative to wild type plants (ptxD transgenic plants; medium with phosphite (5 mM) as the source of phosphorus, FIG. 6) | growth (ptxD transgenic plants; only phosphite (about 0.1 to 5 mM) as external source of phosphorus)
O=P(O)(O)O [phosphate, phosphoric acid (H3PO4)] | sustained growth | grew efficiently | grew efficiently | grew efficiently | grew efficiently |  |  |  |  |  |  |  |  |  |  |  |  |  | 
OP(O)O [phosphite, phosphorous acid (H3PO3)] |  |  |  |  |  | no substantial growth | grew similarly or better | only the transgenic plants were capable of sustained growth | only the transgenic plants were capable of sustained growth | did not grow substantially | more than 50% | sustained growth | able to sustain rapid growth | unable to sustain normal growth | unable to use phosphite | grew efficiently | but not the parental line | substantial growth advantage | grew efficiently
